Values joined by “and” are separate entries in the source; they are usually repeats but may differ in a detail not shown here. Equal values may be shown once. Inconclusive results and toxic doses are left out. Cut-off read from the data, not from the text of the source: active = T/C of 150% or more; inactive = T/C below 125%.
Tested on: L1210 leukemia ip in BDF1 mice, survival T/C
Test: NCI In Vivo Anticancer Drug Screen. Data for tumor model L1210 Leukemia (intraperitoneal) in B6D2F1 (BDF1) mice
Conditions: endpoint: mean survival time, higher = longer survival
Summary of the method: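 Survival endpoint. Drug-treated group vs vehicle group, expressed as T divided by C. Tumor passaged by transplantation.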

[1] = dose: 12.5 mg/kg/injection, schedule: Q01DX009 (ip), vehicle: saline
[2] = dose: 25.0 mg/kg/injection, schedule: Q01DX009 (ip), vehicle: saline
[3] = dose: 100.0 mg/kg/injection, schedule: Q04DX003 (ip), vehicle: saline
[4] = dose: 200.0 mg/kg/injection, schedule: Q04DX003 (ip), vehicle: saline
[5] = dose: 400.0 mg/kg/injection, schedule: Q04DX003 (ip), vehicle: saline
[6] = dose: 100.0 mg/kg/injection, schedule: Q01DX001 (ip), vehicle: saline
[7] = dose: 100.0 mg/kg/injection, schedule: Q04DX003 (ip), vehicle: Klucel (hydroxypropylcellulose) (HPC)
[8] = dose: 200.0 mg/kg/injection, schedule: Q01DX001 (ip), vehicle: saline
[9] = dose: 400.0 mg/kg/injection, schedule: Q01DX001 (ip), vehicle: saline
[10] = dose: 100.0 mg/kg/injection, schedule: Q01DX009 (ip), vehicle: saline with Tween-80
[11] = dose: 200.0 mg/kg/injection, schedule: Q01DX009 (ip), vehicle: saline with Tween-80
[12] = dose: 50.0 mg/kg/injection, schedule: Q01DX009 (ip), vehicle: saline with Tween-80
[13] = dose: 100.0 mg/kg/injection, schedule: Q01DX001 (ip), vehicle: Klucel (hydroxypropylcellulose) (HPC)
[14] = dose: 200.0 mg/kg/injection, schedule: Q01DX001 (ip), vehicle: Klucel (hydroxypropylcellulose) (HPC)
[15] = dose: 400.0 mg/kg/injection, schedule: Q01DX001 (ip), vehicle: Klucel (hydroxypropylcellulose) (HPC)
[16] = dose: 100.0 mg/kg/injection, schedule: Q04DX002 (ip), vehicle: Klucel (hydroxypropylcellulose) (HPC)
[17] = dose: 200.0 mg/kg/injection, schedule: Q04DX002 (ip), vehicle: Klucel (hydroxypropylcellulose) (HPC)
[18] = dose: 100.0 mg/kg/injection, schedule: Q01DX009 (ip), vehicle: Klucel (hydroxypropylcellulose) (HPC)
[19] = dose: 200.0 mg/kg/injection, schedule: Q01DX009 (ip), vehicle: Klucel (hydroxypropylcellulose) (HPC)
[20] = dose: 400.0 mg/kg/injection, schedule: Q01DX009 (ip), vehicle: Klucel (hydroxypropylcellulose) (HPC)
[21] = dose: 50.0 mg/kg/injection, schedule: Q01DX001 (ip), vehicle: saline
[22] = dose: 25.0 mg/kg/injection, schedule: Q01DX009 (ip), vehicle: Klucel (hydroxypropylcellulose) (HPC)

Measured: T/C

O=c1c(O)cccc2cc(O)c(O)c(O)c12
inactive: [1] 100 % of control | [2] 94 % of control and 97 % of control and 107 % of control | dose: 50.0 mg/kg/injection, schedule: Q01DX009 (ip), vehicle: saline 95 % of control and 101 % of control (2×) | dose: 100.0 mg/kg/injection, schedule: Q01DX009 (ip), vehicle: saline 101 % of control | dose: 200.0 mg/kg/injection, schedule: Q01DX009 (ip), vehicle: saline 94 % of control and 92 % of control

Nc1ncnc2c1nc(Br)n2C1OC(CO)C(O)C1O (centres undefined)
inactive: [3] 97 % of control | [4] 101 % of control | [5] 101 % of control

CC1(C)C(=NNC(N)=O)C(C)(C)C1=NNC(N)=O
inactive: [6] 96 % of control | [7] 91 % of control | [8] 94 % of control | [9] 90 % of control

O=C(NNC(=O)NC1OCC(O)C(O)C1O)Nc1ccccc1 (centres undefined)
inactive: [10] 97 % of control | [11] 100 % of control | dose: 400.0 mg/kg/injection, schedule: Q01DX009 (ip), vehicle: saline with Tween-80 97 % of control

NCC(OC1CCCCC1)C(Cl)(Cl)Cl (centres undefined)
inactive: [12] 92 % of control | [10] 97 % of control

O=C1C(=O)c2c(nc3ccccn23)-c2ccccc21
inactive: [13] 103 % of control | [14] 94 % of control | [15] 105 % of control

N#CC(C#N)=Cc1ccc2c(c1)CCC2
inactive: dose: 10.0 mg/kg/injection, schedule: Q01DX009 (ip), vehicle: saline with Tween-80 100 % of control | dose: 20.0 mg/kg/injection, schedule: Q01DX009 (ip), vehicle: saline with Tween-80 96 % of control | dose: 40.0 mg/kg/injection, schedule: Q01DX009 (ip), vehicle: saline with Tween-80 94 % of control | dose: 75.0 mg/kg/injection, schedule: Q01DX001 (ip), vehicle: other 96 % of control

O=[N+]([O-])c1ccc(N=Cc2ccccc2)c(O)c1
inactive: [6] 93 % of control | [8] 98 % of control | [9] 98 % of control

CCCCN(C(C)=O)c1ccccc1
inactive: [13] 97 % of control | [14] 91 % of control | [15] 94 % of control

c1ccc2c[n+]3ccccc3cc2c1
inactive: dose: 6.25 mg/kg/injection, schedule: Q01DX009 (ip), vehicle: saline 103 % of control | [1] 100 % of control | [2] 111 % of control

C=C(CCCC)c1ccccc1
inactive: [12] 102 % of control | [10] 91 % of control | [11] 94 % of control

CN(C)CCN(CC(=O)O)CC(=O)O
inactive: [6] 100 % of control | [8] 102 % of control | [9] 100 % of control

C(#[C][Sn]([c]1ccccc1)([c]1ccccc1)[c]1ccccc1)c1ccccc1
inactive: dose: 25.0 mg/kg/injection, schedule: Q04DX002 (ip), vehicle: Klucel (hydroxypropylcellulose) (HPC) 97 % of control | dose: 50.0 mg/kg/injection, schedule: Q04DX002 (ip), vehicle: Klucel (hydroxypropylcellulose) (HPC) 90 % of control

Cc1cccnc1C(=O)O
inactive: dose: 50.0 mg/kg/injection, schedule: Q04DX003 (ip), vehicle: saline with Tween-80 94 % of control | [6] 94 % of control | dose: 100.0 mg/kg/injection, schedule: Q04DX003 (ip), vehicle: saline with Tween-80 95 % of control | [8] 94 % of control | dose: 200.0 mg/kg/injection, schedule: Q04DX003 (ip), vehicle: saline with Tween-80 91 % of control

CCC/C(=N/NC(=O)c1ccccc1)c1ccccc1
inactive: [16] 110 % of control | [17] 110 % of control | dose: 400.0 mg/kg/injection, schedule: Q04DX002 (ip), vehicle: Klucel (hydroxypropylcellulose) (HPC) 100 % of control

Nc1nc(N)nc(CBr)n1
inactive: dose: 12.5 mg/kg/injection, schedule: Q01DX001 (ip), vehicle: Klucel (hydroxypropylcellulose) (HPC) 103 % of control | dose: 50.0 mg/kg/injection, schedule: Q01DX001 (ip), vehicle: Klucel (hydroxypropylcellulose) (HPC) 115 % of control

CSc1ncnc2c1ncn2N1CCCC1COS(=O)(=O)c1ccc(C)cc1 (centres undefined)
inactive: dose: 100.0 mg/kg/injection, schedule: Q01DX001 (ip), vehicle: DMSO 96 % of control | dose: 200.0 mg/kg/injection, schedule: Q01DX001 (ip), vehicle: DMSO 90 % of control | dose: 400.0 mg/kg/injection, schedule: Q01DX001 (ip), vehicle: DMSO 95 % of control

CC(C)=Cc1cc(C)ccc1OC(=O)c1ccc([N+](=O)[O-])cc1
inactive: [13] 102 % of control | [18] 97 % of control | [14] 91 % of control | [19] 101 % of control | [15] 103 % of control | [20] 104 % of control

O=C(O)CS(=O)(=O)Cc1ccc(Cl)cc1
inactive: dose: 100.0 mg/kg/injection, schedule: Q04DX002 (ip), vehicle: saline with Tween-80 95 % of control | dose: 200.0 mg/kg/injection, schedule: Q04DX002 (ip), vehicle: saline with Tween-80 113 % of control | dose: 400.0 mg/kg/injection, schedule: Q04DX002 (ip), vehicle: saline with Tween-80 95 % of control

CC(C)NCCC#N
inactive: [3] 104 % of control | [4] 111 % of control | [5] 108 % of control

O=C(O)COc1ccc(Cl)cc1I
inactive: [16] 120 % of control | [17] 97 % of control

Cc1ccc(C)c(NC(=O)OCCOc2ccccc2)c1
inactive: [18] 101 % of control | [3] 103 % of control | [19] 90 % of control | [4] 104 % of control | [20] 91 % of control | [5] 101 % of control

O=c1cc(/C=N\Nc2ccc([N+](=O)[O-])cc2)[nH]c(=O)[nH]1
inactive: [21] 106 % of control | [6] 95 % of control | [8] 101 % of control | [9] 90 % of control

CCCSc1ncnc2c1nc(C)n2CO
inactive: [6] 114 % of control | [8] 114 % of control | [9] 121 % of control

Nc1ccc([I+]c2ccccc2)cc1
inactive: [21] 101 % of control | [6] 103 % of control

O=C(NNCc1ccccc1)C(O)C(O)C(O)CO (centres undefined)
inactive: [22] 93 % of control | dose: 50.0 mg/kg/injection, schedule: Q01DX009 (ip), vehicle: Klucel (hydroxypropylcellulose) (HPC) 96 % of control | [18] 104 % of control | [19] 94 % of control | [20] 103 % of control

CN(C)C(=O)NCc1ccccc1
inactive: [7] 90 % of control | dose: 200.0 mg/kg/injection, schedule: Q04DX003 (ip), vehicle: Klucel (hydroxypropylcellulose) (HPC) 92 % of control | dose: 400.0 mg/kg/injection, schedule: Q04DX003 (ip), vehicle: Klucel (hydroxypropylcellulose) (HPC) 98 % of control

Cc1cc(N(CCOS(C)(=O)=O)CCOS(C)(=O)=O)ccc1C=Nc1ccc(-c2csc(Cc3ccccc3)n2)cc1
inactive: dose: 6.25 mg/kg/injection, schedule: Q01DX009 (ip), vehicle: Klucel (hydroxypropylcellulose) (HPC) 105 % of control | dose: 12.5 mg/kg/injection, schedule: Q01DX009 (ip), vehicle: Klucel (hydroxypropylcellulose) (HPC) 110 % of control | [22] 122 % of control

— PubChem BioAssay AID248 (DTP/NCI, 2004)
